Laboratory results: patent US20100311714A1, “1H-IMIDAZO[4,5-c]QUINOLINONE COMPOUNDS” (priority 2009, published 2010)

Experiments:
[1] = Parallel Artificial Membrane Permeability Assay (PAMPA) at pH 6.8; assay type: physicochemical
In short: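 PAMPA permeability measured at pH 6.8 following the Wohnsland and Faller method; value reported as log Pe.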

[2] = system: PKB Ser473 phosphorylation in Rat1-myr-HA-p110 beta cells; test: Reverse protein array, PKB Ser473 phosphorylation in Rat1-myr-HA-p110 beta cells; assay type: cell-based; details: Rattus norvegicus, 0.5 h, 30 minutes compound incubation, read-out: p-PKB/IC50_beta

Row | Compound | HT-Perm logPe pH6.8 [1] | IC50 [2] [nM] | HT-perm/logPe pH6.8 [1]
1 | CCOc1ccc(-c2ccc3ncc4c(c3c2)n(-c2cccnc2F)c(=O)n4C)cn1 [Example 6.1, 8-(6-Ethoxy-pyridin-3-yl)-1-(2-fluoro-pyridin-3-yl)-3-methyl-1,3-dihydro-imidazo[4,5-c]quinolin-2-one] | – | 56.2 | −3.9
2 | COc1ccc(-c2ccc3ncc4c(c3c2)n(-c2cccnc2C)c(=O)n4C)cc1OC [Example 2.9, 8-(3,4-Dimethoxy-phenyl)-3-methyl-1-(2-methyl-pyridin-3-yl)-1,3-dihydro-imidazo[4,5-c]quinolin-2-one] | – | 15.7 | −3.3
3 | CCOc1cc(-c2ccc3ncc4c(c3c2)n(-c2ccc(F)nc2C)c(=O)n4C)cnc1COC [Example 7.5, 8-(5-Ethoxy-6-methoxymethyl-pyridin-3-yl)-1-(6-fluoro-2-methyl-pyridin-3-yl)-3-methyl-1,3-dihydro-imidazo[4,5-c]quinolin-2-one] | −3.7 | 82.1 | –
4 | CNc1cc(-c2ccc3ncc4c(c3c2)n(-c2cccnc2C)c(=O)n4C)cnc1C [Example 2.32, 3-Methyl-8-(6-methyl-5-methylamino-pyridin-3-yl)-1-(2-methyl-pyridin-3-yl)-1,3-dihydro-imidazo[4,5-c]quinolin-2-one] | −4.8 | 6 | –
5 | CCOc1ncc(-c2ccc3ncc4c(c3c2)n(-c2cccnc2C)c(=O)n4C)cn1 [Example 2.5, 8-(2-Ethoxy-pyrimidin-5-yl)-3-methyl-1-(2-methyl-pyridin-3-yl)-1,3-dihydro-imidazo[4,5-c]quinolin-2-one] | – | 53.8 | −4.0
6 | CNc1ccc(-c2ccc3ncc4c(c3c2)n(-c2ccc(F)nc2C)c(=O)n4C)cn1 [Example 7.4, 1-(6-Fluoro-2-methyl-pyridin-3-yl)-3-methyl-8-(6-methylamino-pyridin-3-yl)-1,3-dihydro-imidazo[4,5-c]quinolin-2-one] | – | 8.6 | −4.3
7 | CCOc1ccc(-c2ccc3ncc4c(c3c2)n(-c2cnccc2C)c(=O)n4C)cn1 [Example 4.2, 8-(6-Ethoxy-pyridin-3-yl)-3-methyl-1-(4-methyl-pyridin-3-yl)-1,3-dihydro-imidazo[4,5-c]quinolin-2-one] | – | 149 | −3.5
8 | COc1ccc(-c2ccc3ncc4c(c3c2)n(-c2ncccc2C)c(=O)n4C)cc1OC [Example 3.10, 8-(3,4-Dimethoxy-phenyl)-3-methyl-1-(3-methyl-pyridin-2-yl)-1,3-dihydro-imidazo[4,5-c]quinolin-2-one] | – | 516 | −3.8
9 | Cc1nc(F)ccc1-n1c(=O)n(C)c2cnc3ccc(-c4cnc5c(ccn5C)c4)cc3c21 [Example 7.2, 1-(6-Fluoro-2-methyl-pyridin-3-yl)-3-methyl-8-(1-methyl-1H-pyrrolo[2,3-b]pyridin-5-yl)-1,3-dihydro-imidazo[4,5-c]quinolin-2-one] | – | 29.5 | −3.7
10 | Cc1ncccc1-n1c(=O)n(C)c2cnc3ccc(-c4cncc(N5CCC5)c4)cc3c21 [Example 2.29, 8-(5-Azetidin-1-yl-pyridin-3-yl)-3-methyl-1-(2-methyl-pyridin-3-yl)-1,3-dihydro-imidazo[4,5-c]quinolin-2-one] | −4.3 | 19.7 | –
11 | Cc1ncccc1-n1c(=O)n(C)c2cnc3ccc(-c4cnc(N)c(C(F)(F)F)c4)cc3c21 [Example 2.11, 8-(6-Amino-5-trifluoromethyl-pyridin-3-yl)-3-methyl-1-(2-methyl-pyridin-3-yl)-1,3-dihydro-imidazo[4,5-c]quinolin-2-one] | – | 9.92 | −4.0
12 | Cc1ccncc1-n1c(=O)n(C)c2cnc3ccc(-c4ccc(CO)nc4)cc3c21 [Example 4.1, 8-(6-Hydroxymethyl-pyridin-3-yl)-3-methyl-1-(4-methyl-pyridin-3-yl)-1,3-dihydro-imidazo[4,5-c]quinolin-2-one] | – | 694 | −6.1
13 | COc1ncccc1-n1c(=O)n(C)c2cnc3ccc(-c4cnc5[nH]ccc5c4)cc3c21 [Example 1.2, 1-(2-Methoxy-pyridin-3-yl)-3-methyl-8-(1H-pyrrolo[2,3-b]pyridin-5-yl)-1,3-dihydro-imidazo[4,5-c]quinolin-2-one] | – | < 4.57 | −4.5
14 | CN(C)c1ccc(-c2ccc3ncc4c(c3c2)n(-c2cccnc2)c(=O)n4C)cn1 [Example 5.3, 8-(6-Dimethylamino-pyridin-3-yl)-3-methyl-1-pyridin-3-yl-1,3-dihydro-imidazo[4,5-c]quinolin-2-one] | – | 185 | −3.9
15 | CCOc1ccc(-c2ccc3ncc4c(c3c2)n(-c2ccc(F)nc2C)c(=O)n4C)cn1 [Example 7.3, 8-(6-Ethoxy-pyridin-3-yl)-1-(6-fluoro-2-methyl-pyridin-3-yl)-3-methyl-1,3-dihydro-imidazo[4,5-c]quinolin-2-one] | – | 43.8 | −3.7
16 | Cc1ncccc1-n1c(=O)n(C)c2cnc3ccc(-c4cncc(N)c4)cc3c21 [Example 2.25, 8-(5-Amino-pyridin-3-yl)-3-methyl-1-(2-methyl-pyridin-3-yl)-1,3-dihydro-imidazo[4,5-c]quinolin-2-one] | −7.7 | 58.7 | –
17 | Cc1ncccc1-n1c(=O)n(C)c2cnc3ccc(-c4cncc(NC(C)C)c4)cc3c21 [Example 2.24, 8-(5-Isopropylamino-pyridin-3-yl)-3-methyl-1-(2-methyl-pyridin-3-yl)-1,3-dihydro-imidazo[4,5-c]quinolin-2-one] | −4.5 | 16.4 | –

Continued, values first:

Row | HT-Perm logPe pH6.8 [1] | IC50 [2] [nM] | HT-perm/logPe pH6.8 [1] | Compound
18 | −7.1 | 32.7 | – | CCNc1cc(-c2ccc3ncc4c(c3c2)n(-c2ccc(N3CC(O)C3)nc2C)c(=O)n4C)cnc1CO [Example 29.2, 8-(5-Ethylamino-6-hydroxymethyl-pyridin-3-yl)-1-[6-(3-hydroxy-azetidin-1-yl)-2-methyl-pyridin-3-yl]-3-methyl-1,3-dihydro-imidazo[4,5-c]quinolin-2-one]
19 | −4.5 | 11 | – | CNc1ncc(-c2ccc3ncc4c(c3c2)n(-c2ccc(N3CC[C@H](O)C3)nc2C)c(=O)n4C)cc1C(F)(F)F [Example 32.5, 1-[6-((S)-3-Hydroxy-pyrrolidin-1-yl)-2-methyl-pyridin-3-yl]-3-methyl-8-(6-methylamino-5-trifluoromethyl-pyridin-3-yl)-1,3-dihydro-imidazo[4,5-c]quinolin-2-one]
20 | −3.8 | 63.7 | – | Cc1nc(N2CC[C@H](O)C2)ccc1-n1c(=O)n(C)c2cnc3ccc(-c4cncc(OC(C)C)c4)cc3c21 [Example 32.8, 1-[6-((S)-3-Hydroxy-pyrrolidin-1-yl)-2-methyl-pyridin-3-yl]-8-(5-isopropoxy-pyridin-3-yl)-3-methyl-1,3-dihydro-imidazo[4,5-c]quinolin-2-one]
21 | −3.7 | 136 | – | Cc1nc(N2CCC2)ccc1-n1c(=O)n(C)c2cnc3ccc(-c4cncc(OC(C)C)c4)cc3c21 [Example 23.9, 1-(6-Azetidin-1-yl-2-methyl-pyridin-3-yl)-8-(5-isopropoxy-pyridin-3-yl)-3-methyl-1,3-dihydro-imidazo[4,5-c]quinolin-2-one]
22 | −3.9 | 15.2 | – | CCNc1ncc(-c2ccc3ncc4c(c3c2)n(-c2ccc(N3CC[C@@H](O)C3)nc2C)c(=O)n4C)cc1C(F)(F)F [Example 34.2, 8-(6-Ethylamino-5-trifluoromethyl-pyridin-3-yl)-1-[6-((R)-3-hydroxy-pyrrolidin-1-yl)-2-methyl-pyridin-3-yl]-3-methyl-1,3-dihydro-imidazo[4,5-c]quinolin-2-one]
23 | −4.1 | 19.3 | – | CNc1ncc(-c2ccc3ncc4c(c3c2)n(-c2ccc(C(C)(C)O)nc2C)c(=O)n4C)cc1F [Example 31.1, 8-(5-Fluoro-6-methylamino-pyridin-3-yl)-1-[6-(1-hydroxy-1-methyl-ethyl)-2-methyl-pyridin-3-yl]-3-methyl-1,3-dihydro-imidazo[4,5-c]quinolin-2-one]
24 | −5 | 21.9 | – | CNc1ncc(-c2ccc3ncc4c(c3c2)n(-c2ccc(N3CC(O)C3)nc2C)c(=O)n4C)cc1C(F)(F)F [Example 29.4, 1-[6-(3-Hydroxy-azetidin-1-yl)-2-methyl-pyridin-3-yl]-3-methyl-8-(6-methylamino-5-trifluoromethyl-pyridin-3-yl)-1,3-dihydro-imidazo[4,5-c]quinolin-2-one]
25 | −3.8 | 66.7 | – | CCOc1cc(-c2ccc3ncc4c(c3c2)n(-c2ccc(OCCOC)nc2C)c(=O)n4C)cnc1COC [Example 22.1, 8-(5-Ethoxy-6-methoxymethyl-pyridin-3-yl)-1-[6-(2-methoxy-ethoxy)-2-methyl-pyridin-3-yl]-3-methyl-1,3-dihydro-imidazo[4,5-c]quinolin-2-one]
26 | −4.8 | 15.2 | – | CNc1ncc(-c2ccc3ncc4c(c3c2)n(-c2ccc(N3CC[C@H](O)C3)nc2C)c(=O)n4C)cc1F [Example 32.2, 8-(5-Fluoro-6-methylamino-pyridin-3-yl)-1-[6-((S)-3-hydroxy-pyrrolidin-1-yl)-2-methyl-pyridin-3-yl]-3-methyl-1,3-dihydro-imidazo[4,5-c]quinolin-2-one]
27 | −3.9 | 39.9 | – | CCOc1cc(-c2ccc3ncc4c(c3c2)n(-c2ccc(N3CCCC3)nc2C)c(=O)n4C)cnc1COC [Example 25.2, 8-(5-Ethoxy-6-methoxymethyl-pyridin-3-yl)-3-methyl-1-(2-methyl-6-pyrrolidin-1-yl-pyridin-3-yl)-1,3-dihydro-imidazo[4,5-c]quinolin-2-one]
28 | −5.7 | < 4.57 | – | CCNc1cc(-c2ccc3ncc4c(c3c2)n(-c2ccc(N3CCC3)nc2C)c(=O)n4C)cnc1CO [Example 23.8, 1-(6-Azetidin-1-yl-2-methyl-pyridin-3-yl)-8-(5-ethylamino-6-hydroxymethyl-pyridin-3-yl)-3-methyl-1,3-dihydro-imidazo[4,5-c]quinolin-2-one]
